Patent publication US20230002397A1, “SMALL MOLECULE DEGRADERS OF HELIOS AND METODS OF USE” (DANA-FARBER CANCER INSTITUTE, INC., priority 2019, published 2023)

Molecular target: T1, IKZF2 (Homo sapiens, UniProt Q96SW2+Q9UKS7)
T1 construct: CRISPR/Cas9—mediated insertion of the HiBiT peptide tag (Promega™) to the N-terminus of the IKZF2 gene locus; endogenous in cells; host or cells: MOLT4 cells, with CRISPR/Cas9 knock-in of HiBiT at the endogenous IKZF2 locus
Test: HiBit-IKZF2 assay (HiBiT-Helios degradation in MOLT4 cells)
Type: cell-based
Settings: for Dmax: MOLT-4, extent of degradation from highest to lowest concentration, 10 μM to 0.00026 μM, read-out: Dmax; for DC50: concentration at which 50% of HiBiT-Helios degradation was achieved
Procedure: The HiBiT protein tagging system was applied to MOLT4 cells via a CRISPR/Cas9—mediated insertion of the HiBiT peptide tag (Promega™) to the N-terminus of the IKZF2 gene locus (Neon™ Transfection System). The resulting HiBiT-Helios stable cell line was treated with the following compounds in triplicates following a 13-point concentration scheme ranging from 10 μM to 0.00026 μM. At the indicated timepoints, the Nano-Glo® HiBiT Lytic Detection System (Promega™) was utilized for detecting bioluminescence of the HiBiT tag in treated cells: abundance of the tag is proportionate to the level of luminescence. Following normalization to DMSO, dose-response curves were plotted (GraphPad Prism) to determine the concentration points at which 50% of HiBiT-Helios degradation was achieved by each compound. The extent of degradation (range of luminescence) from the highest to lowest concentration points was calculated to determine the Dmax.

T1 sequence (Q9UKS7 whole entry): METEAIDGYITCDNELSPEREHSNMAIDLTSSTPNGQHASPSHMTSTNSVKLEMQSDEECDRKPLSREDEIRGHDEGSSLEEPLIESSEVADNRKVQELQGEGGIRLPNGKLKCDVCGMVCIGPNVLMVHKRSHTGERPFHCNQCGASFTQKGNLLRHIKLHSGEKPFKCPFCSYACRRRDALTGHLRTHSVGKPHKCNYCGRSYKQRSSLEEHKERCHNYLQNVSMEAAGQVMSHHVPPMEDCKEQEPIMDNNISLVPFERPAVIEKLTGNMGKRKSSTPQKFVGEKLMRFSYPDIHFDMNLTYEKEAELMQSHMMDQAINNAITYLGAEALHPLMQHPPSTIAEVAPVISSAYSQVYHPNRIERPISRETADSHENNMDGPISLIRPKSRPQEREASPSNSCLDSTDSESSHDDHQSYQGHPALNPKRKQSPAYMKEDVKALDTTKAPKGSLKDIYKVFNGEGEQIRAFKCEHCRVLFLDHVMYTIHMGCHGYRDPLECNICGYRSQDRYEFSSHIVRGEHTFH
T1 sequence (Q96SW2 whole entry): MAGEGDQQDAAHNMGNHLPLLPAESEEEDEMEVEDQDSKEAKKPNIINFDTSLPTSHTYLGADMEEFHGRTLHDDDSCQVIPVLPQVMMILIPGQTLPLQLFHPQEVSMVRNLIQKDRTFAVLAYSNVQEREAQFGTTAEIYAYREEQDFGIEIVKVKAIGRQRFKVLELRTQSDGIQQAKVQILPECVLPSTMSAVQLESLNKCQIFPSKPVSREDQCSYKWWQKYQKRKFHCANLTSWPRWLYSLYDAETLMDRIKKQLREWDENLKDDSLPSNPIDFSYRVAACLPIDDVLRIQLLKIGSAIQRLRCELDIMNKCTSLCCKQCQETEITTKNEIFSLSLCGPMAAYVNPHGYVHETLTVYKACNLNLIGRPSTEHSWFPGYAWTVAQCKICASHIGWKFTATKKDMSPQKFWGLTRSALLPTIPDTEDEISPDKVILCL
T1 sequence (Q16531 whole entry partner): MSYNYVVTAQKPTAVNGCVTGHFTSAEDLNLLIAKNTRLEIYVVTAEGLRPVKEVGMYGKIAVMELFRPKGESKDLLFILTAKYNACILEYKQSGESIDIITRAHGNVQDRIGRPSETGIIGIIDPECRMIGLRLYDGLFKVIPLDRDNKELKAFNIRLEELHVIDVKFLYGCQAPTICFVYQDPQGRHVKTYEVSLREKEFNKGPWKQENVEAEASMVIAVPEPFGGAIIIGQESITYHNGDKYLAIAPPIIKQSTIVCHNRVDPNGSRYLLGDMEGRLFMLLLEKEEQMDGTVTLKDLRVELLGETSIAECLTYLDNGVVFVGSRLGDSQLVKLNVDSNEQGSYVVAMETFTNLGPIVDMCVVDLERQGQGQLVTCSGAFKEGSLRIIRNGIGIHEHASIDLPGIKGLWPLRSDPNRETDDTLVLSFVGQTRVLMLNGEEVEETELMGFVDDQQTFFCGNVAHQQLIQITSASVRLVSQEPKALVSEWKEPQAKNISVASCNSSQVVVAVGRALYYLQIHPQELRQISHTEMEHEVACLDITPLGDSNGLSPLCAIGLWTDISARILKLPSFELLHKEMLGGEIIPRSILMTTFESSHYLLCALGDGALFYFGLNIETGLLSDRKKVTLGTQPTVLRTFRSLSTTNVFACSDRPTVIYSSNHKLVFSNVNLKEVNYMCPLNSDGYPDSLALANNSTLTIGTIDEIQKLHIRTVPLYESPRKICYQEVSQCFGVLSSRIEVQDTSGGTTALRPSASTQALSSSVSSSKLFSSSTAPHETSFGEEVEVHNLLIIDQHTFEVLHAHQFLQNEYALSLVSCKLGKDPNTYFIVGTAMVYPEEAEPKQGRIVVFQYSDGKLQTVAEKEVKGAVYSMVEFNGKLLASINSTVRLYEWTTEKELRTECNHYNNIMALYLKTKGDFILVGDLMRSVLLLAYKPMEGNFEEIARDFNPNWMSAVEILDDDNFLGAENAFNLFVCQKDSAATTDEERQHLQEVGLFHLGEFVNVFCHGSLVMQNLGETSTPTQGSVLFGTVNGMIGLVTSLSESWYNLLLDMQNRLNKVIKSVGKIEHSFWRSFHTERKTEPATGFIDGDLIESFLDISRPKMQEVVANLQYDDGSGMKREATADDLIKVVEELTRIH

Dmax [%] | DC50 [nM] | Structure (SMILES)
50 to 70 | < 10 | O=C1CCC(N2Cc3cc(C4CCN(Cc5cccc(Nc6ncccc6F)c5)CC4)ccc3C2=O)C(=O)N1 (stereo not drawn) [Compound 133]
50 to 70 | 10 to 30 | O=C1CCC(N2Cc3cc(C4CCN(Cc5ccccc5C(=O)Nc5ccccc5)CC4)ccc3C2=O)C(=O)N1 (stereo not drawn) [Compound 144]
50 to 70 | 30 to 150 | O=C1CCC(N2Cc3cc(C4CCN(Cc5ccc(C(=O)Nc6ccccc6)cc5)CC4)ccc3C2=O)C(=O)N1 (stereo not drawn) [Compound 158]
50 to 70 | 10 to 30 | O=C1CCC(N2Cc3cc(C4CCN(Cc5ccc(Nc6ccccc6)nc5)CC4)ccc3C2=O)C(=O)N1 (stereo not drawn) [Compound 142]
> 70 | 10 to 30 | O=C1CCC(N2Cc3cc(C4CCN(Cc5ccc6c(c5)C(=O)N(c5ccccc5O)C6)CC4)ccc3C2=O)C(=O)N1 (stereo not drawn) [Compound 218]
50 to 70 | < 10 | O=C1CCC(N2Cc3cc(C4CCN(Cc5ccnc(Nc6ccccn6)c5)CC4)ccc3C2=O)C(=O)N1 (stereo not drawn) [Compound 115]
50 to 70 | 10 to 30 | O=C1CCC(N2Cc3cc(C4CCN(Cc5ccc6c(c5)C(=O)N(c5ccc(F)cc5)C6)CC4)ccc3C2=O)C(=O)N1 (stereo not drawn) [Compound 180]
50 to 70 | 30 to 150 | O=C1CCC(N2Cc3cc(C4CCN(Cc5ccc(S(=O)(=O)Nc6ccccn6)cc5)CC4)ccc3C2=O)C(=O)N1 (stereo not drawn) [Compound 157]
50 to 70 | < 10 | O=C1CCC(N2Cc3cc(C4CCN(Cc5ccc(S(=O)(=O)N6CCC7(CC7)C6)cc5)CC4)ccc3C2=O)C(=O)N1 (stereo not drawn) [Compound 169]
50 to 70 | 30 to 150 | O=C1CCC(N2Cc3cc(C4CCN(Cc5ccc6c(c5)C(=O)N(c5ncccn5)CC6)CC4)ccc3C2=O)C(=O)N1 (stereo not drawn) [Compound 182]
30 to 50 | 30 to 150 | O=C1CCC(N2Cc3cc(C4CCN(Cc5ccccc5C(=O)N5CC6C(C5)C6(F)F)CC4)ccc3C2=O)C(=O)N1 (stereo not drawn) [Compound 111]
50 to 70 | 10 to 30 | O=C1CCC(N2Cc3cc(C4CCN(Cc5ccc(F)c(Nc6ccccc6)n5)CC4)ccc3C2=O)C(=O)N1 (stereo not drawn) [Compound 187]
50 to 70 | 30 to 150 | N#Cc1ccc(CN2CCC(c3ccc4c(c3)CN(C3CCC(=O)NC3=O)C4=O)CC2)nc1Nc1ccccc1 (stereo not drawn) [Compound 186]
> 70 | 10 to 30 | O=C1CCC(N2Cc3cc(C4CCN(Cc5ccc6c(c5)C(=O)N(c5ccccc5)C6)CC4)ccc3C2=O)C(=O)N1 (stereo not drawn) [Compound 146, 3-(1-oxo-5-(1-((3-oxo-2-phenylisoindolin-5-yl)methyl)piperidin-4-yl)isoindolin-2-yl)piperidine-2,6-dione]
50 to 70 | 10 to 30 | O=C1CCC(N2Cc3cc(C4CCN(Cc5nccc(Nc6ccccc6)c5F)CC4)ccc3C2=O)C(=O)N1 (stereo not drawn) [Compound 100]
50 to 70 | < 10 | O=C1CCC(N2Cc3cc(C4CCN(Cc5ccc6c(c5)C(=O)N(c5ncccc5F)C6)CC4)ccc3C2=O)C(=O)N1 (stereo not drawn) [Compound 221]
30 to 50 | < 10 | O=C1CCC(N2Cc3cc(C4CCN(Cc5cccc6c5CN(c5ccccc5)C6=O)CC4)ccc3C2=O)C(=O)N1 (stereo not drawn) [Compound 113]
50 to 70 | 30 to 150 | O=C1CCC(N2Cc3cc(C4CCN(Cc5ccc(N6CCCC6=O)cc5)CC4)ccc3C2=O)C(=O)N1 (stereo not drawn) [Compound 147]
> 70 | < 10 | O=C1CCC(N2Cc3cc(C4CCN(Cc5ccc6c(c5)C(=O)N(c5cccc(O)c5)C6)CC4)ccc3C2=O)C(=O)N1 (stereo not drawn) [Compound 217]
50 to 70 | < 10 | O=C1CCC(N2Cc3cc(C4CCN(Cc5cccc(N6Cc7ncccc7C6=O)c5)CC4)ccc3C2=O)C(=O)N1 (stereo not drawn) [Compound 125]
50 to 70 | < 10 | O=C1CCC(N2Cc3cc(C4CCN(Cc5ccc6c(c5)C(=O)N(c5cccc(F)c5)C6)CC4)ccc3C2=O)C(=O)N1 (stereo not drawn) [Compound 175]

The next lines start with the compound.

Structure (SMILES) | Dmax [%] | DC50 [nM]
O=C1CCC(N2Cc3cc(C4(O)CCN(Cc5ccc6c(c5)C(=O)N(c5ccccc5O)C6)CC4)ccc3C2=O)C(=O)N1 (stereo not drawn) [Compound 219] | > 70 | < 10
O=C1CCC(N2Cc3cc(C4(O)CCN(Cc5cccc(OC(F)F)c5)CC4)ccc3C2=O)C(=O)N1 (stereo not drawn) [Compound 208] | > 70 | < 10
O=C1CCC(N2Cc3cc(C4CCN(Cc5cccc(NC(=O)c6ccccc6)c5)CC4)ccc3C2=O)C(=O)N1 (stereo not drawn) [Compound 50] | 50 to 70 | 10 to 30
O=C1CCC(N2Cc3cc(C4CCN(Cc5cccc(S(=O)(=O)N6C7CCC6COC7)c5)CC4)ccc3C2=O)C(=O)N1 (stereo not drawn) [Compound 162] | 50 to 70 | < 10
O=C1CCC(N2Cc3cc(C4CCN(Cc5cccc(S(=O)(=O)N6CC7C(C6)C7(F)F)c5)CC4)ccc3C2=O)C(=O)N1 (stereo not drawn) [Compound 59] | 50 to 70 | < 10
O=C1CCC(N2Cc3cc(C4(O)CCN(Cc5ccc(C(F)(F)F)cc5)CC4)ccc3C2=O)C(=O)N1 (stereo not drawn) [Compound 251] | > 70 | < 10
O=C1CCC(N2Cc3cc(C4(O)CCN(Cc5cccnc5Oc5ccccc5)CC4)ccc3C2=O)C(=O)N1 (stereo not drawn) [Compound 195] | 50 to 70 | < 10
O=C1CCC(N2Cc3cc(C4(O)CCN(Cc5ccc6c(c5)CCCO6)CC4)ccc3C2=O)C(=O)N1 (stereo not drawn) [Compound 275] | > 70 | < 10
O=C1CCC(N2Cc3cc(C4(O)CCN(Cc5cccc6c5CCN(c5ccccn5)C6=O)CC4)ccc3C2=O)C(=O)N1 (stereo not drawn) [Compound 202] | 50 to 70 | < 10
O=C1CCC(N2Cc3cc(C4(O)CCN(Cc5ccccc5F)CC4)ccc3C2=O)C(=O)N1 (stereo not drawn) [Compound 256] | > 70 | < 10
O=C1CCC(N2Cc3cc(C4CCN(Cc5ccc(S(=O)(=O)N6CC7C(C6)C7(F)F)cc5)CC4)ccc3C2=O)C(=O)N1 (stereo not drawn) [Compound 58] | 30 to 50 | 10 to 30
O=C1CCC(N2Cc3cc(C4CCN(Cc5cccc(C(=O)Nc6ccccc6)c5)CC4)ccc3C2=O)C(=O)N1 (stereo not drawn) [Compound 86, 3-((4-(2-(2,6-dioxopiperidin-3-yl)-1-oxoisoindolin-5-yl)piperidin-1-yl)methyl)-N-phenylbenzamide] | 50 to 70 | < 10
Cc1ccccc1CN1CCC(O)(c2ccc3c(c2)CN(C2CCC(=O)NC2=O)C3=O)CC1 (stereo not drawn) [Compound 265] | > 70 | < 10
O=C1CCC(N2Cc3cc(C4(O)CCN(Cc5cccc(-c6nccs6)c5)CC4)ccc3C2=O)C(=O)N1 (stereo not drawn) [Compound 281] | > 70 | < 10
O=C1CCC(N2Cc3cc(C4(O)CCN(Cc5ccccc5-c5ccccc5)CC4)ccc3C2=O)C(=O)N1 (stereo not drawn) [Compound 274] | 50 to 70 | < 10
O=C1CCC(N2Cc3cc(C4(O)CCN(Cc5ccccc5Cl)CC4)ccc3C2=O)C(=O)N1 (stereo not drawn) [Compound 267] | > 70 | < 10
Cc1cccc(CN2CCC(O)(c3ccc4c(c3)CN(C3CCC(=O)NC3=O)C4=O)CC2)c1 (stereo not drawn) [Compound 264] | > 70 | < 10
O=C1CCC(N2Cc3cc(C4(O)CCN(Cc5ccccc5C(F)(F)F)CC4)ccc3C2=O)C(=O)N1 (stereo not drawn) [Compound 249] | > 70 | < 10
O=C1CCC(N2Cc3cc(C4(O)CCN(Cc5cccc(Cl)c5)CC4)ccc3C2=O)C(=O)N1 (stereo not drawn) [Compound 207] | > 70 | < 10
O=C1CCC(N2Cc3cc(C4(O)CCN(Cc5ccc6c(c5)C(=O)N(c5ccccn5)C6)CC4)ccc3C2=O)C(=O)N1 (stereo not drawn) [Compound 220] | > 70 | < 10
O=C1CCC(N2Cc3cc(C4(O)CCN(Cc5ccc(F)c(F)c5)CC4)ccc3C2=O)C(=O)N1 (stereo not drawn) [Compound 244] | > 70 | < 10
N#Cc1ccccc1CN1CCC(O)(c2ccc3c(c2)CN(C2CCC(=O)NC2=O)C3=O)CC1 (stereo not drawn) [Compound 237] | 50 to 70 | < 10
O=C1CCC(N2Cc3cc(C4(O)CCN(Cc5csc(-c6ccccc6)n5)CC4)ccc3C2=O)C(=O)N1 (stereo not drawn) [Compound 33] | > 70 | < 10
Cc1ccc(CN2CCC(O)(c3ccc4c(c3)CN(C3CCC(=O)NC3=O)C4=O)CC2)cc1 (stereo not drawn) [Compound 266] | > 70 | < 10
O=C1CCC(N2Cc3cc(C4CCN(Cc5cccc(N6C(=O)Cc7ccccc76)c5)CC4)ccc3C2=O)C(=O)N1 (stereo not drawn) [Compound 95] | 50 to 70 | < 10
CN(c1ccccc1)S(=O)(=O)c1ccc(CN2CCC(c3ccc4c(c3)CN(C3CCC(=O)NC3=O)C4=O)CC2)cc1 (stereo not drawn) [Compound 92] | 50 to 70 | < 10
O=C1CCC(N2Cc3cc(C4CCN(Cc5cccc(Nc6ccccc6)c5)CC4)ccc3C2=O)C(=O)N1 (stereo not drawn) [Compound 46, 3-(1-oxo-5-(1-(3-(phenylamino)benzyl)piperidin-4-yl)isoindolin-2-yl)piperidine-2,6-dione] | 50 to 70 | < 10
O=C1CCC(N2Cc3cc(C4(O)CCN(Cc5ccc6c(c5)OC(F)(F)O6)CC4)ccc3C2=O)C(=O)N1 (stereo not drawn) [Compound 271] | > 70 | < 10
O=C1CCC(N2Cc3cc(C4(O)CCN(Cc5ccc6ccc(-c7ccccc7)nc6c5)CC4)ccc3C2=O)C(=O)N1 (stereo not drawn) [Compound 236] | > 70 | < 10
O=C1CCC(N2Cc3cc(C4(O)CCN(Cc5cccc(-c6ccccc6)c5)CC4)ccc3C2=O)C(=O)N1 (stereo not drawn) [Compound 273] | > 70 | < 10
